Data published in patent publication EP2472259B1, “Specific molecules clinging to a lure” (Forschungszentrum Jülich GmbH, priority 2006, dated 2014).

Experiments:
Test in all cases: anti-phage ELISA, relative SH3 binding activity of phage clones
Lck-SH3 = test system: Lck-SH3; set-up: species or system menschlichen; conditions: phage-displayed peptide, Fig. 2f; binding to Lck-SH3 compared with other SH3 domains
From the text: (§1) "anti-Phage-ELISA" - Bestimmung der relativen SH3-Bindungsaktivität einzelner Phagenklone
(§2) Dieser Bindungstest ist ein häufig verwendeter Test zur schnellen Bestimmung relativer Bindungsstärken selektierter Peptide, die hierbei noch physikalisch mit dem Phagen verknüpft vorliegen. Dieser Schritt dient auch zur Eliminierung von (bei dieser Methode nicht selten auftretenden) Phagenvarianten, die z. B. aufgrund ihrer Affinität zur Plastikoberfläche der verwendeten Mikrotiterplatten, angereichert werden und die somit zur Verfälschung der Ergebnisse führen können. Eine grundsätzliche Beschreibung der Methode findet sich z. B. unter Sparks et al. Methods Enzymol. 1995; 255:498-509.
(§3) GST-SH3 Protein wurde in einer Konzentration von 1-10 µg/ml in Tris-Bis über Nacht bei 4°C in Mikrotiterplatten immobilisiert. Verbleibende Bindungsstellen wurden durch 2-stündige Inkubation mit Blockierungspuffer (Bis-Tris mit 2 % Magermilchpulver) abgesättigt. In einer anderen Mikrotiterplatte wurden zuerst je 100 µl Suspension der zu testenden Phagenvariante mit 100 µl Blockierungspuffer für 20 Minuten vorinkubiert und erst dann für 1 Stunde zum immobilisierten GST-SH3 Protein gegeben. Nach einem Waschschritt mit Bis-Tris wurde ein Meerrettich-Peroxidase-konjugierter Antikörper zugegeben und die Platten für eine weitere Stunde inkubiert. […]

Lyn-SH3 = conditions: phage-displayed peptide, Fig. 2f; binding to Lyn-SH3 compared with Lck-SH3
From the text: as §1, §2, §3

Hck-SH3 = conditions: phage-displayed peptide, Fig. 2f; binding to Hck-SH3 compared with Lck-SH3
From the text: as §1, §2, §3

## HSKYPLPPLPSL [PD1, control peptide from standard selection with Lck-SH3 as bait]
Lck-SH3
  relative SH3-Bindungsaktivität: nicht die stärkste Bindung
Lyn-SH3
  relative SH3-Bindungsaktivität: ähnlich gut
Hck-SH3
  relative SH3-Bindungsaktivität: ähnlich gut
